Values quoted from earlier work in patent publication US20060287301A1, “Novel formulations for phenothiazines, including fluphenazine and its derivatives” (priority 2005, published 2006).
Where a name gives a salt, the structure may show the parent alone. Read-outs that look alike come from different tables or passages of the source.

Details: words only

Row | solubility in water | solubility in water (HCl) | SMILES
1 | marginally water soluble | – | OCCN1CCN(CCCN2c3ccccc3Sc3ccc(C(F)(F)F)cc32)CC1 [Fluphenazine, fluphenazine]
2 | – | poorly soluble | OCCN1CCN(CCCN2c3ccccc3Sc3ccc(C(F)(F)F)cc32)CC1 [Fluphenazine HCl]
